According to patent publication EP4678638A1, “NEW E3 UBIQUITIN LIGASE LIGAND, PROTEIN DEGRADATION AGENT AND USE THEREOF” (priority 2023, dated 2024):

Key:
[1] = biological target: T1, CDK4 (Homo sapiens, UniProt P11802); assay: Western blot degradation of CDK4 (MDA-MB-231 Cell); assay type: cell-based; conditions: Table D3
T1 construct: evaluate the effects of the compounds of the present disclosure on the expression of target proteins in cells; endogenous in cells; host or cells: MDA-MB-231
Method: (§1) Conventional Western blot assay was performed to evaluate the effects of the compounds of the present disclosure on the expression of target proteins in cells.
(§2) (1) Cell Seeding and Protein Harvesting: The selected cells were processed according to the cell seeding procedure and protein harvesting procedure in Table III-2. Table III-2 Cell Seeding and Protein Harvesting Procedures
(§3) (2) To the collected supernatant, 5X SDS sample loading buffer was added, followed by denaturation at 95°C for 5 minutes. The denatured samples were then separated by SDS-PAGE electrophoresis on a polyacrylamide gel. Proteins were transferred to a nitrocellulose membrane (0.45 µm NC membrane), blocked with blocking buffer at room temperature for 1 hour, and subjected to antibody incubation and development procedures according to the antibody manufacturer's instructions (Cell Signaling Technology).
(§4) Half-Maximal Degradation Concentration value (the drug concentration required for degrading proteins by 50%, abbreviated as DC50) reads method: comparing the grayscale values of Western blot bands from drug-treated samples with those from blank DMSO-treated controls, and identifying the drug concentration range at which the grayscale value is half that of the DMSO-treated control bands.
(§5) DC50 values can be calculated using ImageJ software to measure grayscale values of Western blot bands from drug-treated samples. The concentration-response curve is fitted to estimate the drug concentration corresponding to half the grayscale value.
(§6) Target protein remaining (%) refers to the percentage of target protein remaining in hPBMC cells after treatment with protein degrader compounds.
(§7) Calculation method for target protein remaining (%): Use ImageJ software to measure grayscale values of Western blot bands from drug (protein degrader)-treated samples. The grayscale value of drug-treated bands is divided by that of internal control protein bands, and the resulting quotient is normalized to obtain the relative percentage of remaining target protein after protein degrader treatment.
(§8) Target protein degradation rate (%) = 100% - target protein remaining (%).

[2] = biological target: T2, CDK6 (Homo sapiens, UniProt Q00534); assay: Western blot degradation of CDK6 (MDA-MB-231 Cell); assay type: cell-based; conditions: Table D3
T2 construct: evaluate the effects of the compounds of the present disclosure on the expression of target proteins in cells; endogenous in cells; host or cells: MDA-MB-231
T2 sequence (Q00534 whole entry): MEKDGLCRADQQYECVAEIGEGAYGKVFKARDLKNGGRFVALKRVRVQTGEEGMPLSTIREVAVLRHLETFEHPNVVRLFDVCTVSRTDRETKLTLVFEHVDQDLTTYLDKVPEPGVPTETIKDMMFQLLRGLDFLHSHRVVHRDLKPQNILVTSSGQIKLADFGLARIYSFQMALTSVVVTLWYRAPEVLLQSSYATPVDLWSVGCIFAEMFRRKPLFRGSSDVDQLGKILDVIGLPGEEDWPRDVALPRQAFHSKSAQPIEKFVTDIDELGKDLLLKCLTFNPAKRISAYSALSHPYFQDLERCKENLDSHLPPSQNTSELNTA
Method: as §1, §2, §3, §4, §5, §6, §7, §8

T1 sequence (P11802 whole entry): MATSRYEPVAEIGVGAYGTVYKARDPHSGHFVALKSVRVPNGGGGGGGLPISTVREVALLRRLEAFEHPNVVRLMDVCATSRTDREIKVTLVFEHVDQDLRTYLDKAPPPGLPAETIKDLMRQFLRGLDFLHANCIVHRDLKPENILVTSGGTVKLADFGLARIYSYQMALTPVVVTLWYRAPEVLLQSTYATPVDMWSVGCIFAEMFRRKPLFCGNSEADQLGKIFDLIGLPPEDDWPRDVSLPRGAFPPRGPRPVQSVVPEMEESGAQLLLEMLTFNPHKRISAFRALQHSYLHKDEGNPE

SMILES | Degradation of substrate protein CDK4 (substrate protein remaining %) [1] | Degradation of substrate protein CDK6 (substrate protein remaining %) [2]
CN(C)C(=O)c1cc2cnc(Nc3ccc(N4CCC(N(C)Cc5cccc(NC6CCC(=O)NC6=O)c5)CC4)cn3)nc2n1C1CCCC1 (stereo not shown) [GT-06495, 7-cyclopentyl-2-((5-(4-((3-((2,6-dioxopiperidin-3-yl)amino)benzyl)(methyl)amino)piperidin-1-yl)pyridin-2-yl)amino)-N,N-dimethyl-7H-pyrrolo[2,3-d]pyrimidine-6-carboxamide] | A (A is defined as 0% ≤ substrate protein remaining % ≤ 80%) | A (A is defined as 0% ≤ substrate protein remaining % ≤ 80%)
CN(C)C(=O)c1cc2cnc(Nc3ccc(N4CCN(Cc5ccc(N6CCC(=O)NC6=O)cc5)CC4)cn3)nc2n1C1CCCC1 [GT-06340, 7-cyclopentyl-2-((5-(4-(4-(2,4-dioxotetrahydropyrimidin-1(2H)-yl)benzyl)piperazin-1-yl)pyridin-2-yl)amino)-N,N-dimethyl-7H-pyrrolo[2,3-d]pyrimidine-6-carboxamide] | A (A is defined as 0% ≤ substrate protein remaining % ≤ 80%) | A (A is defined as 0% ≤ substrate protein remaining % ≤ 80%)
CC(=O)c1c(C)c2cnc(Nc3ccc(N4CCN(Cc5ccnc(N6CCC(=O)NC6=O)c5)CC4)cn3)nc2n(C2CCCC2)c1=O [GT-07481, 1-(4-((4-(6-((6-acetyl-8-cyclopentyl-5-methyl-7-oxo-7,8-dihydropyrido[2,3-d]pyrimidin-2-yl)amino)pyridin-3-yl)piperazin-1-yl)methyl)pyridin-2-yl)dihydropyrimidine-2,4(1H,3H)-dione] | A (A is defined as 0% ≤ substrate protein remaining % ≤ 80%) | A (A is defined as 0% ≤ substrate protein remaining % ≤ 80%)
CN(C)C(=O)c1cc2cnc(Nc3ccc(N4CCN(Cc5ccc(C6CCC(=O)NC6=O)cc5)CC4)cn3)nc2n1C1CCCC1 (stereo not shown) [GT-06339, 7-cyclopentyl-2-((5-(4-(4-(2,6-dioxopiperidin-3-yl)benzyl)piperazin-1-yl)pyridin-2-yl)amino)-N,N-dimethyl-7H-pyrrolo[2,3-d]pyrimidine-6-carboxamide] | A (A is defined as 0% ≤ substrate protein remaining % ≤ 80%) | A (A is defined as 0% ≤ substrate protein remaining % ≤ 80%)
CN(C)C(=O)c1cc2cnc(Nc3ccc(N4CCN(Cc5cnc(N6CCC(=O)NC6=O)cn5)CC4)cn3)nc2n1C1CCCC1 [GT-07831, 7-cyclopentyl-2-((5-(4-((5-(2,4-dioxotetrahydropyrimidin-1(2H)-yl)pyrazin-2-yl)methyl)piperazin-1-yl)pyridin-2-yl)amino)-N,N-dimethyl-7H-pyrrolo[2,3-d]pyrimidine-6-carboxamide] | A (A is defined as 0% ≤ substrate protein remaining % ≤ 80%) | A (A is defined as 0% ≤ substrate protein remaining % ≤ 80%)
CC(=O)c1c(C)c2cnc(Nc3ccc(N4CCN(Cc5ccc(N6CCC(=O)NC6=O)cc5)CC4)cn3)nc2n(C2CCCC2)c1=O [GT-06576, 1-(4-((4-(6-((6-acetyl-8-cyclopentyl-5-methyl-7-oxo-7,8-dihydropyrido[2,3-d]pyrimidin-2-yl)amino)pyridin-3-yl)piperazin-1-yl)methyl)phenyl)dihydropyr imidine-2,4(1H,3H)-dione] | A (A is defined as 0% ≤ substrate protein remaining % ≤ 80%) | A (A is defined as 0% ≤ substrate protein remaining % ≤ 80%)
CN(C)C(=O)c1cc2cnc(Nc3ccc(N4CCN(Cc5ccc(N6CCC(=O)NC6=O)nc5)CC4)cn3)nc2n1C1CCCC1 [GT-06343, 7-cyclopentyl-2-((5-(4-((6-(2,4-dioxotetrahydropyrimidin-1(2H)-yl)pyridin-3-yl)methyl)piperazin-1-yl)pyridin-2-yl)amino)-N,N-dimethyl-7H-pyrrolo[2,3-d]pyrimidine-6-carboxamide] | A (A is defined as 0% ≤ substrate protein remaining % ≤ 80%) | A (A is defined as 0% ≤ substrate protein remaining % ≤ 80%)
CC(=O)c1c(C)c2cnc(Nc3ccc(N4CCN(Cc5cc(N6CCC(=O)NC6=O)cnc5F)CC4)cn3)nc2n(C2CCCC2)c1=O [GT-07832, 1-(5-((4-(6-((6-acetyl-8-cyclopentyl-5-methyl-7-oxo-7,8-dihydropyrido[2,3-d]pyrimidin-2-yl)amino)pyridin-3-yl)piperazin-1-yl)methyl)-6-fluoropyridin-3-yl)dihydropyrimidine-2,4(1H,3H)-dione] | A (A is defined as 0% ≤ substrate protein remaining % ≤ 80%) | A (A is defined as 0% ≤ substrate protein remaining % ≤ 80%)
CC(=O)c1c(C)c2cnc(Nc3ccc(N4CCN(Cc5cnc(N6CCC(=O)NC6=O)cn5)CC4)cn3)nc2n(C2CCCC2)c1=O [GT-07827, 1-(5-((4-(6-((6-acetyl-8-cyclopentyl-5-methyl-7-oxo-7,8-dihydropyrido[2,3-d]pyrimidin-2-yl)amino)pyridin-3-yl)piperazin-1-yl)methyl)pyrazin-2-yl)dihydropyrimidine-2,4(1H,3H)-dione] | A (A is defined as 0% ≤ substrate protein remaining % ≤ 80%) | A (A is defined as 0% ≤ substrate protein remaining % ≤ 80%)
CN(C)C(=O)c1cc2cnc(Nc3ccc(N4CCN(Cc5cc(N6CCC(=O)NC6=O)ncc5F)CC4)cn3)nc2n1C1CCCC1 [GT-07474, 7-cyclopentyl-2-((5-(4-((2-(2,4-dioxotetrahydropyrimidin-1(2H)-yl)-5-fluoropyridin-4-yl)methyl)piperazin-1-yl)pyridin-2-yl)amino)-N,N-dimethyl-7H-pyrrolo[2,3-d]pyrimidine-6-carboxamide] | A (A is defined as 0% ≤ substrate protein remaining % ≤ 80%) | A (A is defined as 0% ≤ substrate protein remaining % ≤ 80%)
CN(C)C(=O)c1cc2cnc(Nc3ccc(N4CCC(N(C)Cc5ccc(N6CCC(=O)NC6=O)cn5)CC4)cn3)nc2n1C1CCCC1 [GT-06493, 7-cyclopentyl-2-((5-(4-(((5-(2,4-dioxotetrahydropyrimidin-1(2H)-yl)pyridin-2-yl)methyl)(methyl)amino)piperidin-1-yl)pyridin-2-yl)amino)-N,N-dimethyl-7H-pyrrolo[2,3-d]pyrimidine-6-carboxamide] | A (A is defined as 0% ≤ substrate protein remaining % ≤ 80%) | B (B is defined as substrate protein remaining % > 80%)
CN(C)C(=O)c1cc2cnc(Nc3ccc(N4CCN(Cc5cccc(NC6CCC(=O)NC6=O)c5)CC4)cn3)nc2n1C1CCCC1 (stereo not shown) [GT-06344, 7-cyclopentyl-2-((5-(4-(3-((2,6-dioxopiperidin-3-yl)amino)benzyl)piperazin-1-yl)pyridin-2-yl)amino)-N,N-dimethyl-7H-pyrrolo[2,3-d]pyrimidine-6-carboxamide] | B (B is defined as substrate protein remaining % > 80%) | A (A is defined as 0% ≤ substrate protein remaining % ≤ 80%)
CN(C)C(=O)c1cc2cnc(Nc3ccc(N4CCC(N(C)Cc5cccc(N6CCC(=O)NC6=O)c5)CC4)cn3)nc2n1C1CCCC1 [GT-06492, 7-cyclopentyl-2-((5-(4-((3-(2,4-dioxotetrahydropyrimidin-1(2H)-yl)benzyl)(methyl)amino)piperidin-1-yl)pyridin-2-yl)amino)-N,N-dimethyl-7H-pyrrolo[2,3-d]pyrimidine-6-carboxamide] | B (B is defined as substrate protein remaining % > 80%) | A (A is defined as 0% ≤ substrate protein remaining % ≤ 80%)
CC(=O)c1c(C)c2cnc(Nc3ccc(N4CCN(Cc5ccc(N6CCC(=O)NC6=O)nc5)CC4)cn3)nc2n(C2CCCC2)c1=O [GT-06579, 1-(5-((4-(6-((6-acetyl-8-cyclopentyl-5-methyl-7-oxo-7,8-dihydropyrido[2,3-d]pyrimidin-2-yl)amino)pyridin-3-yl)piperazin-1-yl)methyl)pyridin-2-yl)dihydropyrimidine-2,4(1H,3H)-dione] | B (B is defined as substrate protein remaining % > 80%) | A (A is defined as 0% ≤ substrate protein remaining % ≤ 80%)
